Test results from paper PMC10362946 (Diabetes, obesity & metabolism, 2022).

Key:
in vivo [1] = experiment: in vivo; parameters: species or system sprague dawley rats; details: rat, sc; for AUC(0-t) / CL/F / Cmax / Tmax / half-life: female, Sprague Dawley
in vivo [2] = experiment: in vivo; parameters: species or system Crl:CD1(ICR) mice; details: mouse, sc
gubra DIO rats = details: gubra choice DIO model; cited from earlier work
[3] = both, Crl:CD1(ICR) (CD-1), 625 nmol/kg

Compound | AUC(0-t) (in vivo [1]; 31 nmol/kg) | CL/F (in vivo [1]; 31 nmol/kg) | Cmax (in vivo [1]; 31 nmol/kg) | Tmax (in vivo [1]; 31 nmol/kg) | half-life (in vivo [1]; 31 nmol/kg) | AUC(0-t) (in vivo [1]; 104 nmol/kg) | CL/F (in vivo [1]; 104 nmol/kg) | Cmax (in vivo [1]; 104 nmol/kg) | Tmax (in vivo [1]; 104 nmol/kg) | half-life (in vivo [1]; 104 nmol/kg) | T1/2 (in vivo [1]) | AUC(0-inf) (in vivo [2]; [3]) | CL/F (in vivo [2]; [3]) | Cmax (in vivo [2]; [3]) | Tmax (in vivo [2]; [3]) | half-life (in vivo [2]; [3]) | T1/2 (elimination half-life) (in vivo [2]) | cumulative chow intake compared to controls (gubra DIO rats) | decrease of cumulative gubra diet intake compared to controls (gubra DIO rats)
CC[C@H](C)[C@H](NC(=O)[C@H](CC(C)C)NC(=O)[C@H](Cc1c[nH]c2ccccc12)NC(=O)[C@H](CCC(N)=O)NC(=O)[C@@H](NC(=O)[C@H](Cc1ccccc1)NC(=O)[C@H](C)NC(=O)[C@H](CCCCNC(=O)COCCOCCNC(=O)COCCOCCNC(=O)CC[C@H](NC(=O)CCCCCCCCCCCCCCCCCCC(=O)O)C(=O)O)NC(=O)[C@H](CCC(N)=O)NC(=O)[C@H](C)NC(=O)[C@@H](NC(=O)[C@H](CCCCN)NC(=O)[C@H](CC(=O)O)NC(=O)[C@H](CC(C)C)NC(=O)C(C)(C)NC(=O)[C@@H](NC(=O)[C@H](CO)NC(=O)[C@H](Cc1ccc(O)cc1)NC(=O)[C@H](CC(=O)O)NC(=O)[C@H](CO)NC(=O)[C@@H](NC(=O)[C@H](Cc1ccccc1)NC(=O)[C@@H](NC(=O)CNC(=O)[C@H](CCC(=O)O)NC(=O)C(C)(C)NC(=O)[C@@H](N)Cc1ccc(O)cc1)[C@@H](C)O)[C@@H](C)O)[C@@H](C)CC)[C@@H](C)CC)C(C)C)C(=O)N[C@@H](C)C(=O)NCC(=O)NCC(=O)N1CCC[C@H]1C(=O)N[C@@H](CO)C(=O)N[C@@H](CO)C(=O)NCC(=O)N[C@@H](C)C(=O)N1CCC[C@H]1C(=O)N1CCC[C@H]1C(=O)N1CCC[C@H]1C(=O)N[C@@H](CO)C(N)=O [tirzepatide] | 3.74 µM·h | 0.139 mL/min/kg | 127 nM | 12 h | 9.3 h | 10 µM·h | 0.172 mL/min/kg | 310 nM | 12 h | 10.3 h | 10.3 h | 71.7 µM·h | 0.145 mL/min/kg | 2540 nM | 12 h | 11.9 h | approximately 12 hr |  | 
liraglutide (HAEGTFTSDVSSYLEGQAAKEFIAWLVRGRG; chains of the INN, looked up) |  |  |  |  |  |  |  |  |  |  |  |  |  |  |  |  |  | approximately doubled | approximately 60%
